Source: patent US20060089410A1, “Combination of chemotherapeutic drugs for increasing antitumor activity” (Titan Pharmaceuticals, Inc., priority 2002, published 2006)
Where a name gives a salt, the structure may show the parent alone. Read-outs that look alike come from different tables or passages of the source.

Experiments:
[1] = test system: T24 Bladder transitional carcinoma cells; assay: Crystal violet microtiter assay, Pivanex then cytotoxic drug, T24; assay type: cell-based, human; conditions: Pivanex 0 μM
Experimental: (§1) T24 Bladder transitional carcinoma cells, Calu-6 anaplastic lung carcinoma cells, and SK-MES-1 squamous lung cell carcinoma cell cultures were purchased from the American Type Culture Collection (Manassas, Va.). All cell lines were cultured in RPMI-1640 with 10% fetal calf serum. For culture in microtiter dishes, cells were plated at a density of 10^4 cells/well and incubated at 37° C., 5% CO2 overnight.
(§2) After overnight incubation, drugs were added to wells in quadruplicate and incubated for 6 to 96 hours in the presence or absence of the oxyalkylene containing compound. […] the media was removed, fresh media were added with cytotoxic drug, and the cultures were incubated for another 6 hours.
(§3) The wells were then washed and medium without drug was added to each well. Microtiter plates were subsequently incubated for an additional 3 days before cell density was determined by a Crystal Violet Assay. Some cultures were alternatively fixed in methanol and stained with hematoxylin and eosin (H&E) stain for 5 minutes prior to microphotography.
(§4) PIVANEX (pivaloyloxymethyl butyrate) was obtained from Titan Pharmaceuticals Inc. (South San Francisco, Calif.) and was admixed with 0.05% Intralipid™ (Fresenius Kabi, Clayton, N.C.) prior to addition to culture media. The cytotoxic drugs gemcitabine (Gemzar; Eli Lilly and Co., Indianapolis, Ind.), cisplatin (Platinol, Bristol-Myers Squibb Co., Princeton, N.J.), paclitaxel (Taxol; Bristol-Myers Squibb Co., Princeton, N.J.), and docetaxel (Taxotere, Aventis Pharmaceuticals Products, Inc., Bridgewater, N.J.) were studied with PIVANEX.
(§5) Cells in microtiter wells were rinsed with PBS and fixed in two volumes of 100% cold methanol for 5 minutes. One volume of 0.5% crystal violet in 20% methanol was added and the attached cells stained for 10 minutes. The cells were then washed and crystal violet was eluted with 0.1 N sodium citrate buffer and read on an ELISA plate reader at 490 nm.

[2] = test system: Calu-6 anaplastic lung carcinoma cells; assay: Crystal violet microtiter assay, Pivanex then cytotoxic drug, Calu-6; assay type: cell-based; conditions: Pivanex 0 μM
Experimental: as §1, §2, §3, §4, §5

[3] = test system: SK-MES-1 squamous lung cell carcinoma cell; assay: Crystal violet microtiter assay, Pivanex then cytotoxic drug, SK-MES-1; assay type: cell-based; conditions: Pivanex 0 μM
Experimental: as §1, §2, §3, §4, §5

[4] = test system: H23 (NCI-H23) NSCLC cell line; assay: MTS growth inhibition assay, sequencing of Pivanex and docetaxel, H23; assay type: cell-based, human; conditions: after 24 hour exposure
H522 NSCLC cell line = assay: MTS growth inhibition assay, sequencing of Pivanex and docetaxel, H522; assay type: cell-based, human; conditions: after 24 hour exposure
Experimental: Human Non-Small Cell Lung Carcinoma Cell Lines, H522 and NCI-H23, were evaluated for growth inhibitory activity of Pivanex, alone and in combination with the standard chemotherapeutic agent, docetaxel. Cells were treated for three days with Pivanex followed by 24 hours of exposure to docetaxel or the cells were treated for 24 hours with docetaxel followed by three days of exposure to Pivanex. The cell growth inhibition was judged at the end of the 4-day experiments by a standard staining technique using MTS tetrazolium vital stain. […]
Exponentially growing cells were harvested with trypsin (0.05%)/EDTA (0.02%) and re-suspended in fresh medium containing 10% FBS. […] Absorbance was documented on a Dynex HD microplate reader at a wavelength of 490 nm. IC50 values were determined by using the Prism® GraphPad software from 3 different tests, each of which involved 4 replicates for each dose determination. The data are presented as percent growth inhibition, where 0% represents the mean value in wells to which only vehicle (0.1% DMSO) was added and was calculated as follows: % Growth Inhibition=(1−(ODtest/ODvehicle))×100 where ODtest is the optical density of the tested sample, OD vehicle is the optical density of the vehicle in which each respected drug is dissolved. […]

[5] = test system: leukemic cells isolated from myelogenous leukemic patients; conditions: in vitro
[6] = cited from earlier work
[7] = test system: refractory acute myelogenous leukemia in relapse; conditions: child, 0.5 g/kg/day; cited from earlier work

N.N.[Cl][Pt][Cl] [Cisplatin, cisplatin, reference compound]
T24 cancer cell viability (A^490 Absorbance) ([1]; cisplatin 5 μM): 0.434
T24 cancer cell viability (A^490 Absorbance) ([1]; cisplatin 10 μM): 0.404
T24 cancer cell viability (A^490 Absorbance) ([1]; cisplatin 20 μM): 0.25
T24 cancer cell viability (A^490 Absorbance) ([1]; cisplatin […]): 0.486
Calu-6 cancer cell viability (A^490 Absorbance) ([2]; cisplatin 5 μM): 0.557
Calu-6 cancer cell viability (A^490 Absorbance) ([2]; cisplatin 10 μM): 0.328
Calu-6 cancer cell viability (A^490 Absorbance) ([2]; cisplatin 20 μM): 0.238
Calu-6 cancer cell viability (A^490 Absorbance) ([2]; cisplatin […]): 0.608
SK-MES-1 non-small cancer cell viability (A^490 Absorbance) ([3]; cisplatin 10 μM): 1.562
SK-MES-1 non-small cancer cell viability (A^490 Absorbance) ([3]; cisplatin 20 μM): 1.477

CC(=O)O[C@@]12CO[C@@H]1C[C@H](O)[C@@]1(C)C(=O)[C@H](O)C3=C(C)[C@@H](OC(=O)[C@H](O)[C@@H](NC(=O)OC(C)(C)C)c4ccccc4)C[C@@](O)([C@@H](OC(=O)c4ccccc4)[C@H]21)C3(C)C [Docetaxel, docetaxel]
Calu-6 cancer cell viability (A^490 Absorbance) ([2]; docetaxel 25 nM): 0.219
Calu-6 cancer cell viability (A^490 Absorbance) ([2]; docetaxel 50 nM): 0.183
Calu-6 cancer cell viability (A^490 Absorbance) ([2]; docetaxel 100 nM): 0.174
Calu-6 cancer cell viability (A^490 Absorbance) ([2]; docetaxel 200 nM): 0.148
cell growth with agent alone [4]: steep increase in H23 cell growth
cell growth with agent alone (H522 NSCLC cell line): steep increase in H522 cell growth

Nc1ccn([C@@H]2O[C@H](CO)[C@@H](O)C2(F)F)c(=O)n1 [Gemcitabine, gemcitabine]
T24 cancer cell viability (A^490 Absorbance) ([1]; gemcitabine 10 nM): 0.48
T24 cancer cell viability (A^490 Absorbance) ([1]; gemcitabine 50 nM): 0.422
Calu-6 cancer cell viability (A^490 Absorbance) ([2]; gemcitabine 25 nM): 0.587
Calu-6 cancer cell viability (A^490 Absorbance) ([2]; gemcitabine 50 nM): 0.466
Calu-6 cancer cell viability (A^490 Absorbance) ([2]; gemcitabine 100 nM): 0.456
Calu-6 cancer cell viability (A^490 Absorbance) ([2]; gemcitabine 200 nM): 0.403

CC(=O)O[C@H]1C(=O)[C@@]2(C)[C@H]([C@H](OC(=O)c3ccccc3)[C@]3(O)C[C@H](OC(=O)[C@H](O)[C@@H](NC(=O)c4ccccc4)c4ccccc4)C(C)=C1C3(C)C)[C@]1(OC(C)=O)CO[C@@H]1C[C@@H]2O [Paclitaxel, paclitaxel, reference compound]
SK-MES-1 cancer cell viability (A^490 Absorbance) ([3]; paclitaxel 25 μM): 0.655
SK-MES-1 cancer cell viability (A^490 Absorbance) ([3]; paclitaxel 50 μM): 0.627
SK-MES-1 cancer cell viability (A^490 Absorbance) ([3]; paclitaxel 100 μM): 0.42

CCCC(=O)O [butyric acid/salts, butyric acid]
cytotoxic and cytodifferentiating potency compared with retinoic acid, 1, 25-dihydroxy vitamin D and cytosine arabinoside [5]: most potent cytotoxic and cytodifferentiating agent
toxicity ([6]; child with refractory acute myelogenous leukemia in relapse, 0.5 g/kg/day): without detectable toxic effects
toxicity ([6]; clinical trials with high dosages): no toxicity
adverse reaction in clinical follow up ([6]; patient with acute myelogenous leukemia in relapse, 1.0 g/kg/day for 10 days and 1.5 g/kg/day for 6 days): no adverse reaction
toxicity ([6]; patients with neuroblastoma, doses of up to 10 g/day): no clinically detectable toxicity
clinical response [7]: partial and temporary remission
